These results are taken from patent publication US9156790B2, “Anticancer P21-activated kinase inhibitors” (Ohio State Innovation Foundation, priority 2013, dated 2015).

The target in one assay is p70S6K (Homo sapiens, UniProt P23443). The experiment in a line: Kinase profiling panel: p70S6K. The conditions noted are these: 5 μM compound; for % activity vs. DMSO, p70S6K: average of triplicate. The class given is biochemical. How it is done: (§1) To further probe the selectivity of the compounds 4 and 15, they were subjected for kinase profiling service for screening against a panel of other kinases selected based on the kinase tree at 5 μM concentration, at or above the IC50 for the two compounds versus PAK in both in vitro and cell-based assays. […] PAK1 was not available for testing using this system thus it was not possible to compare directly in this assay system.

The next assay addresses PAK5 (Homo sapiens, UniProt Q9P286). Description: Kinase profiling panel: PAK5. Particulars: 5 μM compound; average of triplicate. The class given is biochemical. How it is done: as §1
A further assay deals with CaMKI (Homo sapiens, UniProt Q14012). Description: Kinase profiling panel: CaMKI. The class given is biochemical. The conditions noted are these: 5 μM compound; average of triplicate. The method, then: as §1
The target in another assay is PAK6 (Homo sapiens, UniProt Q9NQU5). Description: Kinase profiling panel: PAK6. The format is biochemical. The conditions noted are these: 5 μM compound; average of triplicate. How it is done:
as §1

The next assay addresses FAK (Homo sapiens, UniProt Q05397). Description: Kinase profiling panel: FAK. The class given is biochemical. Particulars: 5 μM compound; average of triplicate. How it is done: as §1
A further assay deals with TPC1 cells. The experiment in a line: MTT cell viability assay, TPC1. The conditions noted are these: Homo sapiens, TPC1, 72-hours of exposure, 1% FBS, mean±standard deviation (n=3), read-out: IC50 for reducing viability of TPC1 cells versus DMSO control. The format is cell-based, Human. The text has this: Human thyroid cancer BCPAP, TPC1, and FTC133 cell lines were the generous gifts of Drs. Rebecca Schweppe and Bryan Haugen (University of Colorado Denver) (Schweppe et al., The Journal of clinical endocrinology and metabolism 83:4331-4341 (2008)) with permission from the following originating laboratories: BCPAP—Dr. Fabien, Centre Hospitalier Lyon-Sud, France (Fabien et al., Cancer 73:2206-2212 (1994)); TPC1—Dr. Sato, Kanazawa University, Japan (Tanaka et al., Virology 161:62-411 (1987)); and FTC133—Dr. Goretzki, University of Leipzig, Germany (Goretzki et al., Recent Results Cancer Res 118:48-63 (1990)). The obtained cell lines were confirmed for identity by DNA fingerprinting. BCPAP was grown in RPMI 1640 medium (Life Technologies Co., Carlsbad, Calif.) while FTC133 and TPC1 were grown in DMEM (Life Technologies Co.), both supplemented with 10% fetal bovine serum (FBS) and NEAA unless as noted for experiments.
The effect of OSU-03012 and its derivatives on cell viability was assessed by using the 3-(4,5-dimethylthiazol-2-yl)-2,5-diphenyl-2H-tetrazolium bromide (MTT) assay. Three replicates were performed in each individual experiment, and experiments were repeated at least three separate times. Cells were grown in 96-well plates for 24 hours and were exposed to various concentrations of drugs dissolved in DMSO (final concentration 0.1%) in RPMI 1640 or DMEM containing 1% FBS for 72 hours. 10 μL of 0.5 mg/ml MTT was added to each well and cells were incubated in CO2 at 37° C. for 2 hours. Supernatants were removed from the wells, the reduced MTT dye was solubilized in 100 μL of solution C (12 ml of 1N HCl in 300 mL of isopropanol), and absorbance at 570 nm was determined on a microplate reader.
We assessed the ability of the compounds to reduce cell viability in vitro by MTT assay after 72 hours of continuous exposure. Results are shown in Table 1 and are depicted as the IC50 vs. simultaneously performed DMSO control.
^aThe reported IC50 values are concentrations at which BCPAP, FTC133 and TPC1 cell viability by MTT assays 50% of DMSO control after 72-hours of exposure. Data are presented as mean±standard deviation (n=3). PAK and PDK1 Selectivity In Vivo
Background: Tetrazolium assays rely on reduction of a dye to a coloured formazan, in cell work by metabolically active cells.

Assay [1] deals with PDK1 phosphorylation of Akt (Thr308). The experiment in a line: Western blot, PDK1 phosphorylation of Akt (Thr308) in thyroid cancer cells. The format is cell-based, Human. Particulars: BCPAP; for PDK1 phosphorylation of Akt (Thr308) (Western blot): 7.5 μM, 6 h, FTC133 and TPC1 cells (FIG. 3); for Dose-dependency of PDK-mediated Akt phosphorylation: dose-response, 6 hours, FTC133 and TPC1 cells (FIG. 4A). The method, then: (§2) Protein isolation and Western blot were performed as previously described. Ringel et al., Cancer research 61:6105-6111 (2001). 25 μg of total cell lysates were loaded into 4-12% SDS-PAGE, electrophoresed, and transferred to nitrocellulose membranes for immunoblotting. Primary antibodies against Akt (#9272), phospho-Akt (Thr308) (#2965), p44/42 MAPK (Erk1/2) (#9107), phospho-p44/42 MAPK (Erk1/2) (Thr202/Tyr204) (#4377) and GAPDH (#2118) were obtained from Cell Signaling Technology (Danvers, Mass., USA). Antibody against Vimentin (V6630) and phospho-Ser55 Vimentin were from Sigma-Aldrich, Inc. (St. Louis, Mo.) and MBL Co. (Nagoya, Japan), respectively. Antibodies against total and phosphorylated S6 were from Cell Signaling Technology®.
(§3) The ability of the compounds with in vitro anti-PAK1 activity was assessed for activity […] in thyroid cancer cells. In addition, because the compounds are based on the structure of a PDK1 inhibitor, PDK1 inhibitory activity was also assessed. Inhibitory activity in cells was estimated using Western blot with primary antibodies directed against kinase-specific phosphorylation sites; serine 56 of vimentin for PAK and threonine 308 of Akt for PDK1. BCPAP, TPC1, and FTC133 thyroid cancer cells were utilized. BCPAP and TPC1 are derived from PTC and have BRAF V600E and RET/PTC1 rearrangements, respectively. FTC133 is derived from a follicular thyroid cancer with an inactivating mutation of PTEN. Similar to the kinase screening assay, cells were treated with the six compounds or OSU-03012 at 7.5 μM concentration or with DMSO vehicle alone. The results were not entirely consistent across the three cell lines presumably related to mutation status or other factors. OSU-03012 inhibited both PDK1 and PAK-mediated phosphorylation of targets as predicted.
(§4) The dose-dependency of compounds 4 and 15 was next assessed (FIG. 4). […] Due to the important role that ERK activation plays in thyroid cancer, and its signaling activation by thyroid oncogenes, the effects of the compounds on ERK phosphorylation was also assessed.

The target of another assay is ROCK-II (Homo sapiens, UniProt O75116). The experiment in a line: Kinase profiling panel: ROCK-II. The format is biochemical. The conditions noted are these: 5 μM compound; average of triplicate. How it is done: as §1
Assay [2] concerns PAK phosphorylation of Vimentin (Ser56). The experiment in a line: Western blot, PAK phosphorylation of Vimentin (Ser56) in thyroid cancer cells. The format is cell-based, Human. The conditions noted are these: for PAK phosphorylation of vimentin (Western blot): 7.5 μM, 6 h, FTC133 and TPC1 cells (FIG. 3); for PAK phosphorylation of vimentin (Western blot) / Dose-dependency of PAK inhibition (Vimentin phosphorylation): BCPAP; for IC50: Homo sapiens, cell-based assays, read-out: IC50 versus PAK, cell-based; for Dose-dependency of PAK inhibition (Vimentin phosphorylation): dose-response, 6 hours, FTC133 and TPC1 cells (FIG. 4A). How it is done:
as §2, §3, §4

The subject of a further assay is other PAK kinases. The experiment in a line: Kinase profiling panel: other PAK kinases (summary statement). The class given is biochemical. The conditions noted are these: 5 μM compound. How it is done:
as §1

“Also recorded” adds a separate entry of the source.

p70S6K, sequence (P23443 whole entry): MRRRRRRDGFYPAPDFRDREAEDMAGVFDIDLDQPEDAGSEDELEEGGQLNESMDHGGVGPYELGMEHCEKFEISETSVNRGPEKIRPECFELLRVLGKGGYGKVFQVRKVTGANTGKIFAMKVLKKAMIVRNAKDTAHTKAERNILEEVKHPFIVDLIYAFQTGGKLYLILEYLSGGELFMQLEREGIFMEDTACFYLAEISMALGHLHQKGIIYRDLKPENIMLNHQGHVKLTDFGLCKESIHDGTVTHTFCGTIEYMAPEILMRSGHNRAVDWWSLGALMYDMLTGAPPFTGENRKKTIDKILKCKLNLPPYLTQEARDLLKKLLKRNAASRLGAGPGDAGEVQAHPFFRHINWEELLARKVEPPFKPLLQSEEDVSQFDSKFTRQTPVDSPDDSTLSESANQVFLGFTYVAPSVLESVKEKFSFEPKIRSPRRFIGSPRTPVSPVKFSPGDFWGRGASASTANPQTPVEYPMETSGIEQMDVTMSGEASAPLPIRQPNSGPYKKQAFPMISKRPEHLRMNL
PAK6, sequence (Q9NQU5 whole entry, species assumed): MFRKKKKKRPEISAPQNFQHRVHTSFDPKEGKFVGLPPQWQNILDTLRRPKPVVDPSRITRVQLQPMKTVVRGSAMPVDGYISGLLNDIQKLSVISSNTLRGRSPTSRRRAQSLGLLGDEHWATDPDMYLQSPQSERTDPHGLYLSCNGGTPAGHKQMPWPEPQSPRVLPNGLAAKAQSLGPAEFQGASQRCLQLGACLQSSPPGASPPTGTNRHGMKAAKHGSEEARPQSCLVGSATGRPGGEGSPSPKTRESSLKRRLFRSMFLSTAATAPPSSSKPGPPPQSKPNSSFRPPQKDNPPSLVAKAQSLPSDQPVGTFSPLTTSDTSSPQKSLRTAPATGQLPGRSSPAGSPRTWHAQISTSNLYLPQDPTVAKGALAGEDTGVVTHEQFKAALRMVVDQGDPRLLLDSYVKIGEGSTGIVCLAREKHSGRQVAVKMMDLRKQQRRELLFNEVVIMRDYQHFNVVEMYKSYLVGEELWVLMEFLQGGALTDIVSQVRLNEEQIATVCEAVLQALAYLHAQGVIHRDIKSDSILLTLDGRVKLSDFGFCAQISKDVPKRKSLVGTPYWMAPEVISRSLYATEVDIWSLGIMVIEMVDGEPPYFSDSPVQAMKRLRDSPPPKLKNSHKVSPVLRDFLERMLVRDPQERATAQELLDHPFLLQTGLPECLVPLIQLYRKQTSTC
FAK, sequence (Q05397 whole entry, species assumed): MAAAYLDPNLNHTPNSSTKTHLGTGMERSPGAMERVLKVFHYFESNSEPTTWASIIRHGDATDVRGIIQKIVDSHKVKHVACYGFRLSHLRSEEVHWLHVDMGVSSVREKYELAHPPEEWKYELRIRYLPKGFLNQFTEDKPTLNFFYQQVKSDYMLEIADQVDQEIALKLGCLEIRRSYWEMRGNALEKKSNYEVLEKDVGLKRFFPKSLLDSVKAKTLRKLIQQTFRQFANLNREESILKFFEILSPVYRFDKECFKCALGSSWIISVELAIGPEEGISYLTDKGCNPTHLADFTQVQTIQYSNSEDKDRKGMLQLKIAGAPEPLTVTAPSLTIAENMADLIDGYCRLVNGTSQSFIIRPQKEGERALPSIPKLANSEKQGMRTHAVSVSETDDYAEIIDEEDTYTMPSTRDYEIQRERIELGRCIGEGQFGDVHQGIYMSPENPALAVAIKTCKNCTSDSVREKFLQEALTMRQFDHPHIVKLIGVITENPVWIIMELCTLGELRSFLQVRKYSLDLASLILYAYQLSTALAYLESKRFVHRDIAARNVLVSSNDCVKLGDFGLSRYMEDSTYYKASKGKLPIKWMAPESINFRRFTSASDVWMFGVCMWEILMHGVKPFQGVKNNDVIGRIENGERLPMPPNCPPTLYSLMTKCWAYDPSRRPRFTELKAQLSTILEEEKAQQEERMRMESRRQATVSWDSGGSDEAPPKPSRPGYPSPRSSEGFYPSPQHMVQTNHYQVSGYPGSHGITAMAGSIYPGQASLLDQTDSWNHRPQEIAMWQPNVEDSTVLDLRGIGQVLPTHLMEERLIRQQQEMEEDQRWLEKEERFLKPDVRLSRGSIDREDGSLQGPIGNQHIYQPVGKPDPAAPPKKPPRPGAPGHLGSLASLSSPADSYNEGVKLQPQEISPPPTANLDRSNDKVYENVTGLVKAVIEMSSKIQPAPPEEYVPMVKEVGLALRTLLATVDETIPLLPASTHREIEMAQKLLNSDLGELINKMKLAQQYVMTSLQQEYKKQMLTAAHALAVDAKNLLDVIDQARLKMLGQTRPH
ROCK-II, sequence (O75116 whole entry, species assumed): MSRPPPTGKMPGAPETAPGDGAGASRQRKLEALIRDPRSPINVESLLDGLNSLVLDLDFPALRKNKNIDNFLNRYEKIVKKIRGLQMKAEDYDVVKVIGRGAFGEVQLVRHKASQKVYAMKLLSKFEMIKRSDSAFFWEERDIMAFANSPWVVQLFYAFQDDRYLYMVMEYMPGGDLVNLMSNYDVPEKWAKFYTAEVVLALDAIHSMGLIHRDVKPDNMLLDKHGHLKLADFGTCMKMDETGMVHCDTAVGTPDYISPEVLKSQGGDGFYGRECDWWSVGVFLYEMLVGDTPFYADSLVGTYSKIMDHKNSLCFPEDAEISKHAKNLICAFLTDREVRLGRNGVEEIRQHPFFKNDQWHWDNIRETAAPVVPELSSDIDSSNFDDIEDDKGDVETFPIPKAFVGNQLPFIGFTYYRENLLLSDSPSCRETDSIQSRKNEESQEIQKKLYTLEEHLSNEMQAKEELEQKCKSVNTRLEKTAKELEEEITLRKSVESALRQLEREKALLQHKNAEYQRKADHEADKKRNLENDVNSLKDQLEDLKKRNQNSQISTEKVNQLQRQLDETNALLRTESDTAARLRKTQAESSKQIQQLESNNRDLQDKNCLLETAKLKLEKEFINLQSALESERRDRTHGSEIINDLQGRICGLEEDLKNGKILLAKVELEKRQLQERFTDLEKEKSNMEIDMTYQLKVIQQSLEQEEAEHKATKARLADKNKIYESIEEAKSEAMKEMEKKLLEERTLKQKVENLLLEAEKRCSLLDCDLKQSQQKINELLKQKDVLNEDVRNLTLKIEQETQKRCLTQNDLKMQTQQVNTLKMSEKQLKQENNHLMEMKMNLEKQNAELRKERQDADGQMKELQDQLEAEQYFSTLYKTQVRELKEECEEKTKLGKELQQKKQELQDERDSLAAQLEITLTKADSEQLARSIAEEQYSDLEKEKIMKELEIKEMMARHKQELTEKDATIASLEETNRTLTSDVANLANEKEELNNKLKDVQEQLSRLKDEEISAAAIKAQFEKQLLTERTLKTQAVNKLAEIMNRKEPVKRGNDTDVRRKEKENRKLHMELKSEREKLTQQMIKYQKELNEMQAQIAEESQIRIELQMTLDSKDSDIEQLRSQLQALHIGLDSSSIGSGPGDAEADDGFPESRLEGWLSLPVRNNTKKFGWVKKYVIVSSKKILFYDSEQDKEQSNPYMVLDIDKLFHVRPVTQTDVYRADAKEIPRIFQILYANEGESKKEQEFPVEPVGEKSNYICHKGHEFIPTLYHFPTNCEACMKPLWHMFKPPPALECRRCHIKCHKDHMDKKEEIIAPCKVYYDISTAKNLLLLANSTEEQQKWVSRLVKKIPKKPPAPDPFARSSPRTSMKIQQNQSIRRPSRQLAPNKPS
CaMKI, sequence (Q14012 whole entry, species assumed): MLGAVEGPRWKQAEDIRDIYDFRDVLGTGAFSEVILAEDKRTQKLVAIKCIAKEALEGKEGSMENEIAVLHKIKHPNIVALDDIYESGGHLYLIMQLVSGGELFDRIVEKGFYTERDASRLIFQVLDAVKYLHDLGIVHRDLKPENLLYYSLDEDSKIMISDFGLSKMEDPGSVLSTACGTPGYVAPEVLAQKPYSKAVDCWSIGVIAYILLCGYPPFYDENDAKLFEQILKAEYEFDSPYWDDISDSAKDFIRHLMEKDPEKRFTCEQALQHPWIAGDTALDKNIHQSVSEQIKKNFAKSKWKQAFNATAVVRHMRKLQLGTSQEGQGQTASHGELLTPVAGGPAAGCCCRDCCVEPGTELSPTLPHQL
PAK5, sequence (Q9P286 whole entry): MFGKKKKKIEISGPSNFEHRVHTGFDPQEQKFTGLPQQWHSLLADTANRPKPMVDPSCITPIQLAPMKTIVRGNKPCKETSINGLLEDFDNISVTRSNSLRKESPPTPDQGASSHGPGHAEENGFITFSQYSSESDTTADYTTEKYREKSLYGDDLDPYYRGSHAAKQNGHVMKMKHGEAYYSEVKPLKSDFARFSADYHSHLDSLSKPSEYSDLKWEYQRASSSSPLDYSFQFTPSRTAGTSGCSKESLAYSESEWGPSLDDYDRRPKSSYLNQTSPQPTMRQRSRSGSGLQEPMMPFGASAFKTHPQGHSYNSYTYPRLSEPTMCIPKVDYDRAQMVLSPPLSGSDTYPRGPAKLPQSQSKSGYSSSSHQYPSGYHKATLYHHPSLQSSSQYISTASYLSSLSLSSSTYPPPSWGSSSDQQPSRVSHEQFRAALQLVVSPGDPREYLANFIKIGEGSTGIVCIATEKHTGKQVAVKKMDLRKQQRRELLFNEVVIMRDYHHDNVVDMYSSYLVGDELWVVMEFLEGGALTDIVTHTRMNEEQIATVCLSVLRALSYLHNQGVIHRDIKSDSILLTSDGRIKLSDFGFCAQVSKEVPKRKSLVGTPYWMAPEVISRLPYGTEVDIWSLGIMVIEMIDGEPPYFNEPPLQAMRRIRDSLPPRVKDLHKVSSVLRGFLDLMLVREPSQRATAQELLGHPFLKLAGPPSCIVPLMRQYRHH

As usually defined, the inhibition is the drop in the measured response relative to a control, in per cent. As usually defined, the IC50 is the concentration at which inhibition is half-maximal. Regarding `NCCC(=O)Nc1ccc(-n2nc(C(F)(F)F)cc2-c2ccc3ccc4ccccc4c3c2)cc1` [Compound 4, 3-amino-N-(4-(5-(phenanthren-3-yl)-3-(trifluoromethyl)-1H-pyrazol-1-yl)phenyl)-propanamide], at p70S6K, the inhibition at 5 µM is greater than 50% and the “% activity vs. DMSO, p70S6K” value was 28%. The “% activity vs. DMSO, PAK5” value on PAK5 was 114%. The “% activity vs. DMSO, CaMKI” value at CaMKI was 65%. In addition, the “% activity vs. DMSO, PAK6” value at PAK6 amounted to 81%. Besides, on FAK, the “% activity vs. DMSO, FAK” value turned out to be 87%. Besides, the IC50 in the assay on TPC1 cells came out at 1.68 ± 0.32 µM. Besides, in [1], the “PDK1 phosphorylation of Akt (Thr308) (Western blot)” value is on record as “without altering PDK1 activity; also recorded: did not block PDK1-mediated Akt phosphorylation” and the “Dose-dependency of PDK-mediated Akt phosphorylation” value is “not reduced”. Also, at ROCK-II, the “% activity vs. DMSO, ROCK-II” value came out at 79%. In assay [2], the “PAK phosphorylation of vimentin (Western blot)” value is given as “inhibited PAK”, the IC50 is no more than 5 µM and the “Dose-dependency of PAK inhibition (Vimentin phosphorylation)” value is reported as “inhibited PAK1 in a dose dependent manner”. The “Activity versus other PAK kinases” value with other PAK kinases was “did not have activity versus other PAK kinases”.
For `CC(C)NC(=O)c1cc(-c2ccc3ccc4ccccc4c3c2)n(-c2ccc(NC(=O)CN)cc2)n1` [Compound 15, 1-(4-(2-Aminoacetamido)phenyl)-N-isopropyl-5-(phenanthren-3-yl)-1H-pyrazole-3-carboxamide], at p70S6K, the inhibition at 5 µM was greater than 50% and the “% activity vs. DMSO, p70S6K” value came out at 38%. Besides, the “% activity vs. DMSO, PAK5” value on PAK5 is on record as 104%. Further, the “% activity vs. DMSO, CaMKI” value on CaMKI is recorded as 68%. Further, at PAK6, the “% activity vs. DMSO, PAK6” value stood at 101%. For the same compound, the “% activity vs. DMSO, FAK” value on FAK was 96%. Besides, the IC50 in the assay with TPC1 cells is 2.66 ± 1.05 µM. Moreover, in assay [1], the “PDK1 phosphorylation of Akt (Thr308) (Western blot)” value is on record as “without altering PDK1 activity; also recorded: did not block PDK1-mediated Akt phosphorylation” and the “Dose-dependency of PDK-mediated Akt phosphorylation” value is listed as “not reduced”. For the same compound, the “% activity vs. DMSO, ROCK-II” value on ROCK-II is 96%. Moreover, in [2], the “PAK phosphorylation of vimentin (Western blot)” value is “inhibited PAK”, the IC50 was no more than 5 µM and the “Dose-dependency of PAK inhibition (Vimentin phosphorylation)” value was “inhibited PAK1 in a dose dependent manner”. For the same compound, the “Activity versus other PAK kinases” value in the assay on other PAK kinases was “did not have activity versus other PAK kinases”.
